This data set is described as follows: gradient 5% acetonitrile 3 min, to 50% in 2 min, to 85% in 15 min, held 3 min, 100 µL/min. As to conditions: column: Zorbax Extend-C18 2.1 x 50 mm; eluents: water / acetonitrile, 0.1% formic acid. Put shortly: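 In both positive and negative ionization mode, a quadrupole time-of-flight mass spectrometer coupled to HPLC analyzed pure standards run in mixtures of ~100 molecules. The Zorbax Extend-C18 column (2.1 × 50 mm, 1.8 μm) was operated at 100 μL/min with water and acetonitrile, each containing 0.1% formic acid. The dead volume was 40 μL and the dwell volume 900 μL. Retention time came from adduct peaks that were computationally picked and individually inspected by hand.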
Compound `Cn1ccc2c(cc(C(=O)NCc3ccc(N4CCOCC4)cc3)n2C)c1=O` returned an RP-LC retention time of 614 s.
The same measure for `COc1ccccc1-c1nc(Cn2nnc(-c3nc(-c4cccc(Cl)c4)no3)c2C)c(C)o1`: 1240 s.
`O=S(=O)(NCc1nc(-c2ccc(NS(=O)(=O)c3ccccc3)cc2)no1)c1ccccc1`: the RP-LC retention time worked out at 877 s.
Compound `CCc1nnc(-c2nnc(N(CC)CC)c3ccccc23)o1` yielded an RP-LC retention time of 859 s.
To `CCCc1nc2cccnc2n1C1CCN(C(=O)c2ccc(C)c(N3CCCC3=O)c2)C1` (stereo not given) belongs 580 s.
Turning to `CCc1nn2c(CNC(=O)c3ccc(Cl)cc3)c(-c3ccccc3)nc2s1`, the RP-LC retention time worked out at 974 s.
The same measure for `Cc1cc(=O)n(CC(=O)Nc2ccc(F)c(F)c2)c(N)n1`: 598 s; for `O=C(CCNc1cnc2cnccn12)NCc1ccc(C(F)(F)F)cc1`: 611 s.
`Cn1ccc2c(cc(C(=O)N3CCN(c4ccccc4F)CC3)n2C)c1=O`: the RP-LC retention time was 723 s.
Take `CCN1c2ccccc2C(=O)NC12CCN(C(=O)c1cccc(F)c1)CC2`: the RP-LC retention time was determined as 742 s.
The same measure for `COc1ncccc1CNC(=O)c1cc(Cl)ccc1F`: 1180 s; for `CCOc1ccc(NS(=O)(=O)c2cc(C(=O)N3CCN(c4cccc(Cl)c4)CC3)n[nH]2)cc1`: 980 s; for `O=C(c1ccsc1)N(CCc1ccccc1)Cc1ccccn1`: 684 s.
The compound `Cc1nc2ccc(NC(=O)c3ccc(Cn4ccnc4)cc3)cc2s1` showed an RP-LC retention time of 565 s.
Take `COCCCNC(=O)C1CCN(c2nc3ccc(-c4cccs4)nc3s2)CC1`: the RP-LC retention time was 801 s.
Regarding `COc1ccc(/C=C/c2nn3c(COc4ccc(OC)cc4)nnc3s2)cc1`, the RP-LC retention time was 973 s.
The same measure for `COc1ccc(OC)c(NC(=O)NC(C)C(=O)N2CCc3ccccc32)c1` (stereo not given): 859 s.
To `O=C1CCCc2nc(N3CCN(c4ccccn4)CC3)ncc21` belongs 566 s; to `CC(=O)N1N=C(c2ccccc2NS(C)(=O)=O)CC1c1ccc2ncccc2c1` (stereo not given), 599 s.
`CC(C)c1ccc(Nc2c(-c3ccccc3O)nc3ncccn23)cc1` displayed an RP-LC retention time of 800 s.
The compound `CCc1csc(-c2cn(CC(=O)Nc3ccc(OC)c(Cl)c3)cn2)n1` yielded an RP-LC retention time of 727 s.
The same measure for `CCC(C)C(NC(=O)c1ccc(OC)cc1)C(=O)Nc1nc2ccccc2[nH]1` (stereo not given): 700 s; for `Cc1ccc(Nc2nc3ccncc3n(C(C)C)c2=O)cc1C`: 716 s; for `Cc1ccc(-c2ncccc2CNS(=O)(=O)c2ccc(Cl)cc2)cc1`: 766 s.
To `Cn1nc(-c2nc(Cc3ccccc3)no2)c2c1CCN(C(=O)NC(C)(C)C)C2` belongs 889 s.
The same measure for `CCc1cccc(NC(=O)Cn2nc(C(=O)N3CCOCC3)c3ccccc32)c1`: 840 s; for `CC(C)n1cc(CN2CCCCCNC(=O)[C@@H]3CCC[C@@H]32)c2ccccc21`: 701 s.
`O=C(Nc1ccccc1C(F)(F)F)N1CCc2nc(-c3ccccc3)ncc2C1` displayed an RP-LC retention time of 948 s.
On to `CCOc1ccc(N2C(=O)C3N=NN(Cc4nc(-c5cccc(C(F)(F)F)c5)no4)C3C2=O)cc1` (stereo not given), for which the RP-LC retention time is 1080 s.
Compound `Cc1cccc(N(C(=O)c2cnc3n(c2=O)CCS3)C2CCCCC2)c1` gave an RP-LC retention time of 782 s.
The same measure for `CN1c2cc(F)ccc2C(=O)NC12CCN(C(=O)Nc1ccccc1)CC2`: 695 s; for `Cc1ccc(C(=O)NCCCN2CCCC2)cc1NC(=O)C1=CSCCO1`: 596 s.
To `CCN1c2ccc(F)cc2C(=O)NC12CCN(C(=O)c1cc(OC)cc(OC)c1)CC2` belongs 782 s.
As to `O=C(Nc1cccc(Cl)c1)N1CCN(Cc2nc3ccccc3o2)CC1`, the RP-LC retention time stood at 728 s.
The same measure for `CCCNC(=O)C1CCCN(c2ccc(SCC(=O)Nc3ccccc3C(F)(F)F)nn2)C1` (stereo not given): 690 s; for `O=C(Nc1cnn(-c2ncncc2N2CCCC2)c1)c1cccc(C(F)(F)F)c1`: 797 s.
For the compound `O=C(Cc1nnc(-c2ccc3ncccc3c2)o1)NCc1ccc(F)cc1Cl`, the RP-LC retention time is 752 s.
Regarding `CCc1noc(-c2cccnc2N2CCCN(Cc3ccc(Cl)cc3)CC2)n1`, the RP-LC retention time turned out to be 709 s.
Take `CCOc1cccc(-c2noc(CCn3nc(-c4ccc(Cl)cc4)ccc3=O)n2)c1`: the RP-LC retention time was determined as 1130 s.
With `CCN(CCCNC(=O)C1CCN(c2nccc3c(C)nn(C)c23)CC1)c1ccccc1`, the RP-LC retention time is 574 s.
To `CC(C)NC(=O)C1CC(=O)N(CCc2c[nH]c3ccc(Cl)cc23)C1` (stereo not given) belongs 731 s.
To `Cc1ccc(Nc2c(-c3ccc(Cl)cc3)nc3cccc(C)n23)cc1` belongs 810 s; to `CCC(=O)N1CCc2c(C(=O)N3CCN(c4ccccc4OC)CC3)cccc21`, 786 s.
To `CCCn1cnc2cc(CNC(=O)CCc3ccccc3)ccc21` belongs 640 s.
`CC(C)c1nnc2n1C(C(=O)NCC(F)F)CCCC2` (stereo not given) registered an RP-LC retention time of 580 s.
In the case of `Cc1cccc(Cn2c(CN3CCC(C(=O)NC(C)C)CC3)cc3ccccc32)c1`, the RP-LC retention time is 737 s.
Regarding `Cc1ccccc1CNC(=O)c1cc2n(n1)CC(C)(C(=O)NC1CCCC1)N(C)C2=O` (stereo not given), the RP-LC retention time was found to be 767 s.
To `COc1ccc(-c2ncc3c(n2)CCN(S(=O)(=O)c2cccc4cccnc24)C3)cc1` belongs 935 s.
The same measure for `Cc1ccc(NC(=O)N2CC(n3ccnc3)C2)cc1C`: 604 s.
To `CCCNC(=O)c1cn(-c2ncccc2-c2nc(-c3ccccc3)no2)cn1` belongs 823 s; to `Cc1cc(C)c2c(n1)SCC(=O)N2CC(=O)NCCCN(C)Cc1ccccc1`, 587 s; to `CCCCn1c(=O)c2ccccc2n(Cc2nc(-c3ccc(C)cc3)no2)c1=O`, 853 s.
`COc1cccc(-c2[nH]ncc2CN2C[C@@H]3CCN(S(C)(=O)=O)C[C@]3(CF)C2)c1` came in with an RP-LC retention time of 599 s.
The same measure for `Cc1ccc(C)c(S(=O)(=O)N2CCc3nc(-c4ccccc4)ncc3C2)c1`: 1170 s; for `CCOc1ccc(C(=O)Nc2cc(Cl)ccc2C)nn1`: 1040 s; for `Cc1ccccc1N1C(=O)CN(S(C)(=O)=O)CC1(C)C(=O)NCc1ccc(Cl)cc1` (stereo not given): 778 s.
To `COCCCNC(=O)C1CCCN(S(=O)(=O)c2ccc(OC)c(C)c2)C1` (stereo not given) belongs 768 s.
In turn, `COc1cc(-c2noc(CCn3nc(-c4ccc(Cl)cc4)ccc3=O)n2)cc(OC)c1OC` had an RP-LC retention time of 974 s.
As for `Cc1ccc2c(c1)-c1onc(C(=O)N3CCN(c4ccccn4)CC3)c1CO2`, the RP-LC retention time is 747 s.
`O=C(Nc1ccc2c(c1)OCO2)C1CCCN(c2ncc(-c3ccccc3)cn2)C1` (stereo not given) gave an RP-LC retention time of 1040 s.
The same measure for `COC1CCC12CCN(Cc1ccccn1)CC2` (stereo not given): 571 s; for `CCc1cccc(NC(=O)CN2C(=O)NC3(CCCCC3)C2=O)c1`: 805 s.
The same measure for `Cc1ccc(CN2C(=O)NC3(CCN(C(=O)c4ccc5c(c4)OCO5)CC3)C2=O)cc1`: 819 s.
As for `CC(=O)N1CCc2cc(N3CC(C(=O)Nc4ccc(F)c(F)c4)CC3=O)ccc21` (stereo not given), the RP-LC retention time stood at 726 s.
To `CC(C)N(CC#CCNS(=O)(=O)c1ccc(Cl)cc1)C(C)C` belongs 568 s; to `O=C(NCc1cccs1)c1c(O)c2cccnc2n(-c2cccc(F)c2)c1=O`, 1120 s.
The same measure for `Cc1ccc(N2CCC(NC(=O)C(C)(C)C)C2=O)cc1C` (stereo not given): 802 s.
With `Cc1nc2cc(-c3noc(-c4cccc(Br)c4)n3)ccc2o1`, the RP-LC retention time stood at 1270 s.
`COc1ccc(Br)cc1S(=O)(=O)NCCCn1ccnc1`: the RP-LC retention time worked out at 568 s.
Turning to `COc1ccc(S(=O)(=O)N2[C@H]3CC[C@@H]2c2cnc(-c4ccccc4)nc2C3)cc1`, the RP-LC retention time is 1030 s.
`CCOCC(=O)N1CC(F)(F)C[C@H]1c1nc(C2CC2)no1` came in with an RP-LC retention time of 746 s.
The same measure for `CCOC(=O)C1CCN(C(=O)CN2CCN(Cc3ccc(C)cc3)C(=O)C2=O)CC1`: 710 s; for `CO[C@H]1C(=O)N(C2CCN(C(=O)Nc3ccc4c(c3)OCCO4)CC2)[C@H]1c1ccncc1`: 582 s.
To `O=C(NCCc1cccc(F)c1)C1CC(=O)N(c2n[nH]c3cccc(F)c23)C1` (stereo not given) belongs 720 s.
Compound `CNC(=O)[C@@H]1CN(S(=O)(=O)c2cnc[nH]2)C[C@H]1c1nc(C)no1` displayed an RP-LC retention time of 568 s.
In turn, `CN1CCC(OC2CCN(S(=O)(=O)c3ccccc3F)CC2)CC1` returned an RP-LC retention time of 620 s.
The same measure for `Cc1cc(C)c(NC(=O)CN2C(=O)NC3(CCC(C)CC3)C2=O)c(C)c1` (stereo not given): 570 s; for `Cn1nc(C(=O)NCc2ccc3c(c2)OCO3)c2c1CCN(C(=O)c1ccco1)C2`: 725 s; for `Cc1oc(C2CCN(S(=O)(=O)CCc3ccccc3)CC2)nc1C(=O)N(C)C`: 816 s.
To `Cc1ccccc1S(=O)(=O)N1CCC2(CC1)NCCN=C2NCc1ccc(F)cc1` belongs 730 s.

These data come from the METLIN SMRT retention time set (Domingo-Almenara et al. 2019).
